Experiments:
SHR-SP cardiac tissue = experiment: cardiac gene expression in HSFD SHR-SP after chronic treatment; assay type: in vivo, rat
Procedure: On week 8, isoflurane anesthetized rats were euthanized via exsanguination. The thoracic aorta was excised for assessment of endothelial function as described below. Hearts were snap-frozen in liquid nitrogen and stored at −80°C for later analysis of gene expression changes associated with cardiac hypertrophy and fibrosis (see below for procedure details).
Cardiac gene expression was analyzed following chronic (7 week) BAY 60-4552 or GSK2181236A treatment in HSFD SHR-SP. Hearts were homogenized in Trizol and RNA was extracted using the RNeasy Plus Mini kit protocol (Qiagen, Valencia, CA, USA) with a 40 μL elution volume. RNA was quantified using a Nanodrop Spectrophotometer ND-1000 (Thermo Fisher Scientific, Wilmington, DE, USA) and converted to cDNA using the High Capacity cDNA Reverse Transcription Kit (Applied Biosystems, Carlsbad, CA, USA). Taqman assays were performed using a 384-well plate format with individual primer-probes and Taqman Universal PCR Master Mix (Applied Biosystems) and run on the 7900 HT Fast Real-Time PCR System (Applied Biosystems). SDS 2.3 software (Applied Biosystems) was used to obtain raw Ct values with manual threshold set at 0.10. Array Studio software (version 3.6.2; OmicSoft Corporation, Cary, NC, USA) was used to normalize gene expression data, by analysis of covariance, to the housekeeper genes β-2-microglobulin (B2m) and peptidyl-prolyl cis-trans isomerase A (Ppia). No outliers were detected by means of principal component analysis.
The following genes were analyzed: α-skeletal actin (Acta1), type 1 collagen-alpha 1 (Col1a1), type 3 collagen-alpha 1 (Col3a1), connective tissue growth factor (CTGF; Ctgf), matrix metalloproteinase 2 (MMP2; Mmp2), matrix metalloproteinase 9 (MMP9; Mmp9), α-myosin heavy chain (α-MHC; Myh6), β-myosin heavy chain (β-MHC; Myh7); atrial natriuretic factor (ANF; Nppa), brain-type natriuretic peptide (BNP; Nppb), cGMP-specific phosphodiesterase 5A (PDE5A; Pde5a), type 2 cGMP-dependent protein kinase (PKG2; Prkg2), and transforming growth factor beta 1 (TGF-β1; Tgfb1).

Sprague Dawley rats = experiment: myocardial ischemia/reperfusion injury; assay type: in vivo, rat; conditions: for circulating levels of cardiac troponin I (cTnI) / infarct size as a percentage of the area at risk: acute p.o. 2 h prior to ischemia, GSK2181236A 0.1 and 1.0 mg/kg, BAY 60-4552 0.3 and 3 mg/kg, 24 h reperfusion
Procedure: This study was performed at CV Dynamics, Inc. (Newark, NJ, USA). Male SD rats were obtained from Charles River Laboratories, Inc. (Kingston, NY, USA). At 2 months of age, rats were pre-medicated with atropine (0.04 mg/kg IM) then anesthetized with a loading dose of pentobarbital sodium (65 mg/kg IP). A supplemental dose of pentobarbital sodium (16.3 mg/kg IP) was administered 30–40 min after the initial anesthesia. Marcaine (0.025–0.05 mg/rat IM) was administered locally for pain control, and anesthetized rats were subjected to a thoracotomy at the fourth intercostal space. The left descending coronary artery was occluded using a 5-0 silk snare for 30 min, followed by reperfusion for 24 h. The coronary occlusion and reperfusion were verified by visual inspection (color change of myocardium from pale to pink) and by EKG monitoring [ST elevation and widening of the QRS; Gould BioTACH ECG module (Valley View, OH, USA) with a Tektronix TDS 220 monitor (Beaverton, OR, USA)]. A 2% lidocaine solution (2–3 mg/kg) was dripped directly onto the heart as needed for arrhythmia control during ischemia, and procainamide (12.5 mg/kg IP) was administered 15 min prior to reperfusion.
Rats were orally gavaged with vehicle (0.5% HPMC, 5% DMSO, and 0.1% Tween 80; 10 mL/kg; n = 14), GSK2181236A (0.1 or 1.0 mg/kg; n = 11–14), or BAY 60-4552 (0.3 or 3.0 mg/kg; n = 10–12) 2 h prior to ischemia. Blood was collected at the initiation of ischemia and after 24 h reperfusion. Plasma was obtained for analysis of compound concentrations and levels of cardiac Troponin I (cTnI), a circulating biomarker of cardiac injury. Plasma concentrations of cTnI were determined using a commercially available ELISA (catalog #2010-2-HSP, Life Diagnostics, West Chester, PA, USA) according to the manufacturer’s instructions. Plasma compound concentrations were determined by LC/MS/MS (API 5000 triple quadrupole mass spectrometer, ABSciex, Foster City, CA, USA; Prominence liquid chromatographic system, Shimadzu, Columbia, MD, USA). Rats were anesthetized with a mixture of ketamine and xylazine (35 and 5 mg/kg, IM) and euthanized via exsanguination. Hearts were excised and perfused with 1% Evans blue dye in saline then perfused-fixed with 10% neutral buffered formalin (∼90 mmHg perfusion pressure). Hearts were sliced on the short axis from apex to base at 1–2 mm intervals, and the ischemic area (area at risk) was evaluated using Image Pro-Plus (Media Cybernetics, Inc., Bethesda, MD, USA). Fresh heart slices were stained with 1% triphenyltetrazolium and evaluated using Image Pro-Plus for determination of infarct size.

WKY rat isolated aorta = experiment: vasodilation of phenylephrine-contracted WKY rat isolated aorta with and without ODQ
Procedure: Male Wistar Kyoto (WKY; Charles River Laboratories, Inc., Raleigh, NC, USA) were anesthetized with inhaled isoflurane (5% in O2) and euthanized by exsanguination. Thoracic aorta was isolated, cleaned of adherent tissue, cut into 3 mm rings, and suspended in 10 mL organ baths containing Krebs–Henseleit buffer (KHB) of the following composition (mM): NaCl, 112.0; KCl, 4.7; KH2PO4, 1.2; MgSO4, 1.2; CaCl2, 2.5; NaHCO3, 25.0; glucose, 11.0. KHB was maintained at 37°C and aerated with 95%O2:5%CO2 (pH 7.4). Changes in isometric force were measured under 1g optimal resting tension using MLT0201/D force-displacement transducers (Letica, Barcelona, Spain) and recorded digitally (Chart 5.0 software, ADInstruments, Colorado Springs, CO, USA). After a 1 h equilibration period, each tissue was contracted to equilibrium with 60 mM KCl, washed with KHB and allowed to relax to the resting tension. The 60 mM KCl contraction was repeated and subsequent contractile responses were normalized to this second KCl response. Each tissue was then contracted to equilibration with 1 μM phenylephrine, washed with KHB and allowed to relax to the resting tension. In order to further investigate the mechanism by which BAY 60-4552 and GSK2181236A were modulating sGC function, the vasodilatory effects of both compounds were assessed in the presence and absence of ODQ, a heme-site inhibitor of sGC. Following a 20 min pre-treatment with DMSO vehicle (0.1% final concentration, v/v) or ODQ (10 μM), aortae were contracted with 0.3 μM phenylephrine (an approximate EC80 concentration). Once the contractile response to phenylephrine reached a plateau (∼10 min), contractile tone was reversed by adding cumulative concentrations of BAY 60-4552 or GSK2181236A to the tissue baths at log increments (0.1 nM to 10 μM).

SMILES	attenuation of HSFD-induced increase of ANF expression (SHR-SP cardiac tissue; 1.0 mg/kg/day, 7 weeks) [fold]	attenuation of HSFD-induced increase of α-skeletal actin expression (SHR-SP cardiac tissue; 1.0 mg/kg/day, 7 weeks) [fold]	mortality rate (Sprague Dawley rats; 0.1 mg/kg p.o., due to anesthesia)	mortality rate (Sprague Dawley rats; 1 mg/kg p.o., arrhythmia during occlusion and unknown cause during reperfusion)	circulating levels of cardiac troponin I (cTnI) (Sprague Dawley rats)	infarct size as a percentage of the area at risk (Sprague Dawley rats)	increase of vasodilatory response by ODQ (WKY rat isolated aorta; 0.1 μM compound, ODQ 10 μM) [%]	increase of vasodilatory response by ODQ (WKY rat isolated aorta; 1 μM compound, ODQ 10 μM) [%]	increase of vasodilatory response by ODQ (WKY rat isolated aorta; 10 μM compound) [%]	attenuation of HSFD-induced increase of α-skeletal actin expression (SHR-SP cardiac tissue; 0.3 mg/kg/day, 7 weeks) [fold]	attenuation of HSFD-induced increase of α-skeletal actin expression (SHR-SP cardiac tissue; 3.0 mg/kg/day, 7 weeks) [fold]	attenuation of HSFD-induced increase of ANF expression (SHR-SP cardiac tissue; 0.3 and 3.0 mg/kg/day, P > 0.05 vs. HSFD)	mortality rate (Sprague Dawley rats; 0.3 mg/kg p.o., arrhythmia and trauma during occlusion)	mortality rate (Sprague Dawley rats; 3 mg/kg p.o., cardiac puncture and trauma)	reduction of vasodilatory response by ODQ (WKY rat isolated aorta; 0.1 μM compound, ODQ 10 μM) [%]	reduction of vasodilatory response by ODQ (WKY rat isolated aorta; 1 μM compound, ODQ 10 μM) [%]
Cc1cc(-c2ccc(OC(F)(F)F)cc2)ccc1COc1ccccc1-c1cccc(-n2ncc(C(=O)O)c2C(F)(F)F)n1 [GSK2181236A, 1-(6-{2-[({3-methyl-4′-[(trifluoromethyl)oxy]-4-biphenylyl}methyl)oxy]phenyl}-2-pyridinyl)-5-(trifluoromethyl)-1H-pyrazole-4-carboxylic acid]	1.4	1.7	1 of 15	2 of 13	did not significantly alter	did not significantly alter	41	36	21	–	–	–	–	–	–	–
COC(=O)Nc1c(N)nc(-c2nn(Cc3ccccc3F)c3ncccc23)nc1N [BAY 60-4552]	–	–	–	–	did not significantly alter	did not significantly alter	–	–	–	1.3	1.4	non-significant trend	2 of 12	2 of 14	48	30

From paper PMC3389674, “Comparison of Soluble Guanylate Cyclase Stimulators and Activators in Models of Cardiovascular Disease Associated with Oxidative Stress” (Frontiers in Pharmacology, 2012)
